According to US9963496B2, “Stable glucagon analogues and use for treatment of hypoglycaemia” (Novo Nordisk A/S, priority 2014, dated 2018):
*1 amine or outer side, *2 acyl side, *3 side chain or, on linkers, in order; H or OH if unused. Where a SMILES comes first, the peptide text is derived from it. Side-chain parts run from the residue outwards. [ ]: non-standard residue; d: D form. The star is where a group is joined. γGlu = O=C(O)[C@H](CCC(=O)[*:2])N[*:1]; Desaminohistidyl = O=C(CCc1c[nH]cn1)*; Aib = CC(C)(N)C(=O)O

Experiments:
human glucagon receptor = molecular target: T1, human glucagon receptor (Homo sapiens, UniProt P47871); assay: Assay (I)(b): glucagon receptor activation, CRE luciferase reporter gene assay in BHK cells; type: cell-based; conditions: BHK cells expressing human glucagon receptor and CRE luciferase, 3 h incubation; read-out: EC50 hGlucagonR
T1 construct: expressed in transfected cells; host or cells: BHK cells, clone BHK hGCGR A3*25; isolated membranes
Procedure: The purpose of this assay is to test the activity, or potency, of the derivatives of the invention, in vitro. The in vitro potency is the measure of human GLP-1 receptor and/or glucagon receptor activation, respectively, in a whole cell assay.
In vitro potency was determined by measuring the response of human GLP-1 or glucagon receptor, respectively, in a reporter gene assay. The assay was performed in a stably transfected BHK cell line that expressed either the human GLP-1 receptor or the human glucagon receptor and contained the DNA for the cAMP response element (CRE) coupled to a promoter and the gene for firefly luciferase (CRE luciferase). […] When assay incubation was completed, the luciferase substrate (luciferin) was added and the enzyme converted luciferin to oxyluciferin and produced bioluminescence. The luminescence was measured as the readout for the assay.
(b) Glucagon Receptor Activation
The cells used in this assay (clone pLJ6′-4-25) were BHK cells with BHK570 as a parent cell line expressing the CRE luciferase gene (clone BHK/KZ10-20-48) and were established by further transfection with the human glucagon receptor (clone pLJ6′ in pHZ-1 vector).
The cells were cultured at 5% CO2 in DMEM medium with 10% FBS, 1× GlutaMAX, 1 mg/mL G418, 240 nM MTX (methotrexate) and 1% pen/strep (penicillin/streptomycin). They were aliquoted and stored in liquid nitrogen. Before each assay, an aliquot was taken up and washed three times in PBS before being suspended at the desired concentration in assay buffer. For 96-well plates the suspension was made to give a final concentration of 5×10 EE3 cells/well.
Assay Medium consisted of DMEM w/o phenol red, 10 mM Hepes, lx GlutaMAX, 2% Ovalbumin and 0.2% Pluronic F-68.
Cell stocks were thawed in a 37° C. water bath. Cells were washed three times in PBS. The cells were counted and adjusted to 5×10 EE3 cells/50 μl (1×10 EE5 cells/mL) in Assay Medium. A 50 μl aliquot of cells was transferred to each well in the assay plate.
Stocks of the test compounds and reference compounds were diluted to a concentration of […] in Assay Medium. Compounds were diluted 10-fold to give the following concentrations: […], 2×10 EE-7 M, 2×10 EE-8 M; 2×10 EE-9 M, 2×10 EE-10 M, 2×10 EE-11 M, 2×10 EE-12 M and 2×10 EE-13 M. For each compound a blank assay buffer control was also included.
A 50 μl aliquot of compound or blank was transferred from the dilution plate to the assay plate. Compounds were tested at the following final concentrations: 1×10 EE-6 M, 1×10 EE-7 M, 1×10 EE-8 M; 1×10 EE-9 M, 1×10 EE-10 M, 1×10 EE-11 M and 1×10 EE-12 M and 1×10 EE-13 M.
The assay plate was incubated for 3 h in a 5% CO2 incubator at 37° C. The assay plate was removed from the incubator and allowed to stand at room temperature for 15 min. A 100 μl aliquot of steadylite plus reagent was added to each well of the assay plate (reagent is light sensitive). Each assay plate was covered with aluminum foil to protect it from light and shaken for 30 min at room temperature. Each assay plate was read in a Packard TopCount NXT instrument.
The data from the TopCount instrument was transferred to GraphPad Prism software. The software performed a non-linear regression (log(agonist) vs response-Variable slope (four parameter)). EC50 values were calculated by the software and reported in pM.

physchem = type: physicochemical; conditions: pH 7.5
Description: Assay (III): ThT Fibrillation Assay for the Assessment of Physical Stability of Peptide Compositions The purpose of this assay is to assess the physical stability of the glucagon derivatives of the invention in aqueous solutions. Low physical stability of a peptide may lead to amyloid fibril formation, which is observed as well-ordered, thread-like macromolecular structures in the sample, which eventually may lead to gel formation. This has traditionally been measured by visual inspection of the sample. However, that kind of measurement is very cumbersome and depending on the observer. Therefore, the application of a small molecule indicator probe is much more advantageous. Thioflavin T (ThT) is such a probe and has a distinct fluorescence signature when binding to fibrils [Naiki et al. (1989) Anal. Biochem. 177, 244-249; LeVine (1999) Methods. Enzymol. 309, 274-284]. Here, as depicted in FIG. 1, F is the ThT fluorescence at the time t. The constant t0 is the time needed to reach 50% of maximum fluorescence. The two important parameters describing fibril formation are the lag-time calculated by t0−2τ and the apparent rate constant kapp 1/τ. Samples were prepared freshly before each assay. Each sample composition is described in the legends. The pH of the sample was adjusted to the desired value using appropriate amounts of concentrated NaOH and HCl. Thioflavin T was added to the samples from a stock solution in H2O to a final concentration of 1 μM. Sample aliquots of 200 μl (250 μM of the glucagon derivative/analogue in 10 mM HEPES buffer, pH 7.5) were placed in a 96 well microtiter plate (Packard OptiPlate™-96, white polystyrene). Usually, four or eight replica of each sample (corresponding to one test condition) was placed in one column of wells. The plate was sealed with Scotch Pad (Qiagen). Incubation at given temperature, shaking and measurement of the ThT fluorescence emission were done in a Fluoroskan Ascent FL fluorescence platereader (Thermo Labsystems). The plate was incubated 37° C. with orbital shaking adjusted to 960 rpm with an amplitude of 1 mm. Fluorescence measurement was done using excitation through a 444 nm filter and measurement of emission through a 485 nm filter. Each run was initiated by incubating the plate at the assay temperature for 10 min. The plate was measured every 20 minutes for a desired period of time. Between each measurement, the plate was shaken and heated as described. After completion of the ThT assay the four or eight replica of each sample was pooled and centrifuged at 20000 rpm for 30 minutes at 18° C. The supernatant was filtered through a 0.22 μm filter and an aliquot was transferred to a HPLC vial. The concentration of peptide in the initial sample and in the filtered supernatant was determined by reverse phase HPLC using an appropriate standard as reference. The percentage fraction the concentration of the filtered sample constituted of the initial sample concentration was reported as the recovery. The measurement points were saved in Microsoft Excel format for further processing and curve drawing and fitting was performed using GraphPad Prism. The background emission from ThT in the absence of fibrils was negligible. The data points were typically a mean of four or eight samples and shown with standard deviation error bars. Only data obtained in the same experiment (i.e. samples on the same plate) were presented in the same graph ensuring a relative measure of fibrillation between experiments. The data set may be fitted to Eq. (1).

T1 sequence (P47871 26-477): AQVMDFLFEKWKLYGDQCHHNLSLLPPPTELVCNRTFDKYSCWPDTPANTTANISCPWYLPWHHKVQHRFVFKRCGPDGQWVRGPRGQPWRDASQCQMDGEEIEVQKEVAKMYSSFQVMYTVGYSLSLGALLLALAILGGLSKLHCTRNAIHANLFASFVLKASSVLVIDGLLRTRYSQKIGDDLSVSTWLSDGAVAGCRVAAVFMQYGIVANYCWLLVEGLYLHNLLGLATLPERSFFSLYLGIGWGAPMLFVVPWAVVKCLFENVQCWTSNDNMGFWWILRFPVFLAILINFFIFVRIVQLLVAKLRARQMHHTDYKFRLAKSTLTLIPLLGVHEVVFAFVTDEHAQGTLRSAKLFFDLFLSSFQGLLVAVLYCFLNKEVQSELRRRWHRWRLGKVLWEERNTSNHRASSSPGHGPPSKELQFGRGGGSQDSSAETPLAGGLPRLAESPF

SMILES: CC(=O)N[C@@H](CCC(=O)N[C@@H](CCC(=O)N[C@@H](CCC(=O)N[C@@H](CCC(=O)NCCCC[C@H](NC(=O)[C@H](CC(C)C)NC(=O)[C@H](CC(C)C)NC(=O)[C@H](Cc1c[nH]c2ccccc12)NC(=O)[C@H](CCC(N)=O)NC(=O)[C@@H](NC(=O)[C@H](Cc1ccccc1)NC(=O)[C@H](CCC(=O)O)NC(=O)[C@H](CCC(N)=O)NC(=O)[C@H](C)NC(=O)[C@H](CCCNC(=N)N)NC(=O)[C@H](CCCNC(=N)N)NC(=O)[C@H](CO)NC(=O)[C@H](CCC(=O)O)NC(=O)[C@H](CC(C)C)NC(=O)[C@H](Cc1ccc(O)cc1)NC(=O)[C@H](CCCCN)NC(=O)[C@H](CO)NC(=O)[C@H](Cc1ccc(O)cc1)NC(=O)[C@H](CC(=O)O)NC(=O)[C@H](CO)NC(=O)[C@@H](NC(=O)[C@H](Cc1ccccc1)NC(=O)[C@@H](NC(=O)CNC(=O)[C@H](Cc1c[nH]cn1)NC(=O)[C@H](CO)NC(=O)CCc1c[nH]cn1)[C@@H](C)O)[C@@H](C)O)C(C)C)C(=O)N[C@H](C(=O)O)[C@@H](C)O)C(=O)O)C(=O)O)C(=O)O)C(=O)O [Example 14, N^ϵ28-[(4S)-4-[[(4S)-4-[[(4S)-4-[[(4S)-4-acetamido-4-carboxybutanoyl]amino]-4-carboxybutanoyl]amino]-4-carboxybutanoyl]amino]-4-carboxybutanoyl]-[Imp1, His3, Glu15, Glu21, Leu27, Lys28]-Glucagon] (Desaminohistidyl-SHGTFTSDYSKYLESRRAQEFVQWLLK([γGlu-γGlu-γGlu-γGlu-Ac])T-OH)
- EC50 (human glucagon receptor): 6 pM
- recovery at 250 μM (physchem): 98%

SMILES: CC(=O)N[C@@H](CCC(=O)N[C@@H](CCC(=O)N[C@@H](CCC(=O)N[C@@H](CCC(=O)NCCCC[C@H](NC(=O)[C@@H](NC(=O)[C@H](Cc1ccccc1)NC(=O)[C@H](CC(=O)O)NC(=O)[C@H](CCC(N)=O)NC(=O)[C@H](C)NC(=O)[C@H](CCCNC(=N)N)NC(=O)[C@H](CCCNC(=N)N)NC(=O)[C@H](CO)NC(=O)[C@H](CCC(=O)O)NC(=O)[C@H](CC(C)C)NC(=O)[C@H](Cc1ccc(O)cc1)NC(=O)[C@H](CCCCN)NC(=O)[C@H](CO)NC(=O)[C@H](Cc1ccc(O)cc1)NC(=O)[C@H](CC(=O)O)NC(=O)[C@H](CO)NC(=O)[C@@H](NC(=O)[C@H](Cc1ccccc1)NC(=O)[C@@H](NC(=O)CNC(=O)[C@H](Cc1c[nH]cn1)NC(=O)C(C)(C)NC(=O)CCc1c[nH]cn1)[C@@H](C)O)[C@@H](C)O)C(C)C)C(=O)N[C@@H](Cc1c[nH]c2ccccc12)C(=O)N[C@@H](CC(C)C)C(=O)N[C@@H](CC(C)C)C(=O)N[C@@H](CO)C(=O)N[C@H](C(=O)O)[C@@H](C)O)C(=O)O)C(=O)O)C(=O)O)C(=O)O [Example 2, N^ϵ24-[(4S)-4-[[(4S)-4-[[(4S)-4-[[(4S)-4-acetamido-4-carboxybutanoyl]amino]-4-carboxybutanoyl]amino]-4-carboxybutanoyl]amino]-4-carboxybutanoyl]-[Imp1, Aib2, His3, Glu15, Lys24, Leu27, Ser28]-Glucagon] (Desaminohistidyl-[Aib]HGTFTSDYSKYLESRRAQDFVK([γGlu-γGlu-γGlu-γGlu-Ac])WLLST-OH)
- EC50 (human glucagon receptor): 5 pM
- recovery at 250 μM (physchem): 104%

SMILES: CC(=O)N[C@@H](CCC(=O)N[C@@H](CCC(=O)N[C@@H](CCC(=O)N[C@@H](CCC(=O)NCCCC[C@H](NC(=O)[C@@H](NC(=O)[C@H](Cc1ccccc1)NC(=O)[C@H](CC(=O)O)NC(=O)[C@H](CCC(N)=O)NC(=O)[C@H](C)NC(=O)[C@H](CCCNC(=N)N)NC(=O)[C@H](CCCNC(=N)N)NC(=O)C(C)(C)NC(=O)[C@H](CC(=O)O)NC(=O)[C@H](CC(C)C)NC(=O)[C@H](Cc1ccc(O)cc1)NC(=O)[C@H](CCCCN)NC(=O)[C@H](CO)NC(=O)[C@H](Cc1ccc(O)cc1)NC(=O)[C@H](CC(=O)O)NC(=O)[C@H](CO)NC(=O)[C@@H](NC(=O)[C@H](Cc1ccccc1)NC(=O)[C@@H](NC(=O)CNC(=O)[C@H](Cc1c[nH]cn1)NC(=O)[C@H](CO)NC(=O)CCc1c[nH]cn1)[C@@H](C)O)[C@@H](C)O)C(C)C)C(=O)N[C@@H](Cc1c[nH]c2ccccc12)C(=O)N[C@@H](CC(C)C)C(=O)N[C@@H](CC(C)C)C(=O)N[C@@H](CO)C(=O)N[C@H](C(=O)O)[C@@H](C)O)C(=O)O)C(=O)O)C(=O)O)C(=O)O [Example 21, N^ϵ24-[(4S)-4-[[(4S)-4-[[(4S)-4-[[(4S)-4-acetamido-4-carboxybutanoyl]amino]-4-carboxybutanoyl]amino]-4-carboxybutanoyl]amino]-4-carboxybutanoyl]-[Imp1, His3, Aib16, Lys24, Leu27, Ser28]-Glucagon] (Desaminohistidyl-SHGTFTSDYSKYLD[Aib]RRAQDFVK([γGlu-γGlu-γGlu-γGlu-Ac])WLLST-OH)
- EC50 (human glucagon receptor): 2 pM
- recovery at 250 μM (physchem): 104%
